Measurements taken from patent US8030511B2, “Method for the manufacture of therapeutic compounds and compositions, compounds and compositions produced therewith, and their use” (priority 2006, dated 2011).

Experiments:
[1] = Cederqvist et al., 1994; cited from earlier work
[2] = HPLC of commercial organic nitrites diluted in deoxygenated water versus NO-saturated water; type: physicochemical; conditions: for size of HPLC peak (UV max 225 nm), dilution in de-aerated NO saturated solutions: Novapak C8 or CN column
Description: Analysis of reaction mixtures and commercial organic nitrites and nitrates was made by high performance liquid chromatography (HPLC) using reverse phase chromatography on C8, C18 or CN columns (Waters Inc. NOVAPAK™ 4 μm particle size 8×100 mm radial compression columns) by means of two LDC Constametric pumps delivering a constant total flow of 1 ml per min, controlled by a computerized gradient control system generating a linear gradient of 0-100% methanol (elution solvent B) in 33 min, starting 1 min after injecting sample in the aqueous initial elution solvent (solvent A) which contained 5 mM ammonium formiate at pH 6. Separation of eluted compounds was determined by an LDC Spectromonitor variable UV monitor set at 210 nm, followed by a Pharmacia Wavescan wavelength scanning detector producing UV scans between 190 and 370 nm at 4 s intervals which were stored on a computer and analyzed after each HPLC run. The output from the LDC Spectromonitor was continuously recorded on a strip chart recorder.
HPLC: On all three Novapak columns and on the Thermo column a single peak of product, from the reaction between propanol and NO gas, eluted at a gradient concentration of 70-80% methanol. In the NOVAPAK C18 system this corresponded to an elution time of approximately 28 min (FIG. 12, panel C). […] When a standard sample of propyl nitrite (Karl Industries Inc., Aurora, Ohio, USA) diluted in a gas-type cylinder in deoxygenated (10 min He purging) water at 1:1000 was injected, a small peak at 28 min was obtained (FIG. 12, panel A), having an identical UV absorbance max at 225 nm. […] Similar results were obtained on the C8 and CN columns, a single retained peak was obtained from the reaction mixture consisting of propanol and NO, although at somewhat shorter retention times, compared with the C18 system.
Commercial samples of ethyl nitrite, butyl nitrite, and isobutyl nitrite (Sigma-Aldrich) were diluted anaerobically as above and injected onto the HPLC system, using either the Novapak C8 or CN column. Peaks with UV absorbance maxima of approximately 225 nm were obtained in all the samples, but at different retention times corresponding to the expected differences judged from the lipophilic chain length of the compounds. All these peaks were larger if the dilution of the organonitrite had been done in de-aerated NO saturated solutions. The respective peaks with UV max at 225 nm coincided with single similar peaks obtained by treating the corresponding alcohol (ethanol, butanol, isobutanol) with NO gas. This was taken as evidence that the corresponding organic mononitrite had formed.

[3] = Verification of NO donating capacity (1% sodium iodide in hot acetic acid, chemiluminescence); type: physicochemical
From the text: Samples of eluents from the HPLC system were collected and analyzed for NO/nitrite content by injection into a reaction vessel containing 1% sodium iodide in hot acetic acid. Released nitric oxide was purged into a chemiluminescence analyzer system optimized for detection of nitric oxide by chemiluminescence reaction with ozone and determination of NO+ozone-generated excited NO2 product through counting of emitted photons.

venous gas embolism = assay: Treatment of venous gas embolism in an animal with inhibited NO production; type: in vivo
From the text: The beneficial effects may be induction of vasodilation in the pulmonary vasculature, inhibition of aggregation of trombocytes and/or minor vasodilation in the whole or parts of the systemic circulation, for example in the coronary circulation.

[4] = Intravenous infusion of NO dissolved in liquid medium in L-NAME pre-treated rabbit; type: in vivo
Description: Experiments were approved by the local ethics committee on animal experimentation. A male New Zealand white rabbit was anesthetised, prepared and examined as in the protocol presented in Example 2. The rabbit was pre-treated with L-NAME (30 mg kg^−1) and received one infusion with NO-gas dissolved in normal saline and one with NO-gas dissolved in lipid emulsion ([…]®, Fresenius Kabi) through the catheter in the jugular vein without carrier flow. The infusion rate was for both liquids 0.5 ml kg^−1 min^−1. There was a recovery period between the two infusions for about 200 min.
The infusion liquids were created the same way. First the liquid was de-aerated for 20 min, in a gas-tight glass chamber with a rubber membrane with an inert gas; in this case helium gas, but nitrogen, argon etc could also be used. After this no oxygen were allowed to enter the liquid throughout the following procedure. The liquid was then purged with pure NO of a few minutes. The liquid was then collected through the rubber membrane in a gas-tight syringe with needle and from this syringe infused by means of syringe pump (864 Syringe Pump, Univentor LTD., Zejtun, Malta) in the jugular vein catheter.

[5] = before 30 mg kg^−1 throughout 10 min

## CC(C)CCON=O [isoamyl nitrite]
[1]
  generation of NO in vivo: generate NO

## CCCON=O [propyl nitrite]
[2]; dilution 1:1000, Novapak C18
  size of 28 min HPLC peak, dilution in water saturated with NO gas vs deoxygenated water: 5-10 times

## O=[N+]([O-])OCC(CO[N+](=O)[O-])O[N+](=O)[O-] [Nitroglycerin, glyceryl trinitrate]
[3]
  release of NO by mild reduction treatment: did not yield a release of NO
[1]
  generation of NO in vivo: generate NO

## CCCCON=O [butyl nitrite]
[2]
  size of HPLC peak (UV max 225 nm), dilution in de-aerated NO saturated solutions: larger
[1]
  generation of NO in vivo: generate NO

## [N]=O [inhaled nitric oxide, nitric oxide]
Venous gas embolism
  treatment of venous gas embolism: impossible to treat

## COC(=O)[C@@H](N)CCCNC(=N)N[N+](=O)[O-] [L-NAME, N^G-nitro-L-arginine methyl ester]
[4]; 30 mg kg^−1 throughout 10 min
  exhaled nitric oxide after L-NAME infusion: < 1 ppb
  heart rate (HR) after L-NAME infusion: 258 beats min^−1
  systemic mean arterial blood pressure (MAP) after L-NAME infusion: 128 cmH2O
[4]; L-NAME 30 mg kg^−1 throughout 10 min
  End-tidal CO2 and the relevant blood gas parameters: normal
[4]; [5]
  exhaled nitric oxide before L-NAME infusion: 19 ppb
  heart rate (HR) before L-NAME infusion: 274 beats min^−1
  systemic mean arterial blood pressure (MAP) before L-NAME infusion: 103 cmH2O

## CC(C)CO[N+](=O)[O-] [isobutyl nitrate]
[1]
  generation of NO in vivo: generate NO

## CCON=O [ethyl nitrite]
[2]
  size of HPLC peak (UV max 225 nm), dilution in de-aerated NO saturated solutions: larger
[1]
  generation of NO in vivo: generate NO

## CC(C)CON=O [isobutyl nitrite]
[2]
  size of HPLC peak (UV max 225 nm), dilution in de-aerated NO saturated solutions: larger
[1]
  generation of NO in vivo: generate NO
